Columns and labels:
CDK2/CycE = biological target: T1, CDK2/CycE (Homo sapiens, UniProt P24941); assay: CDK2/CycE kinase assay (TR-FRET, 2 mM ATP); type: biochemical; conditions: 2 mM ATP (high ATP); median; read-out: CDK2/CyclinE, 2 mM ATP (high ATP), IC50 (median)
T1 construct: purchased ProQinase GmbH (Freiburg, Germany); host or cells: insect cells (Sf9)
Source text: CDK2/CycE-inhibitory activity of compounds of the present invention was quantified employing the CDK2/CycE TR-FRET assay as described in the following paragraphs.
Recombinant fusion proteins of GST and human CDK2 and of GST and human CycE, expressed in insect cells (Sf9) and purified by Glutathion-Sepharose affinity chromatography, were purchase from ProQinase GmbH (Freiburg, Germany). As substrate for the kinase reaction biotinylated peptide biotin-Ttds-YISPLKSPYKISEG (C-terminus in amid form) was used which can be purchased e.g. form the company JERINI peptide technologies (Berlin, Germany).
For the assay 50 nanoL of a 100 fold concentrated solution of the test compound in DMSO was pipetted into a black low volume 384 well microtiter plate or a black 1536 well microtiter plate (both Greiner Bio-One, Frickenhausen, Germany), 2 microL of a solution of CDK2/CycE in aqueous assay buffer [50 millimol/L Tris/HCl pH 8.0, 10 millimol/L MgCl2, 1.0 millimol/L dithiothreitol, 0.1 millimol/L sodium ortho-vanadate, 0.01% (v/v) Nonidet-P40 (Sigma)] were added and the mixture was incubated for 15 min at 22° C. to allow pre-binding of the test compounds to the enzyme before the start of the kinase reaction. Then the kinase reaction was started by the addition of 3 microL of a solution of adenosine-tri-phosphate (ATP, 3.33 millimol/L=>final conc. in the 5 microL assay volume is 2 millimol/L) and substrate (1.25 micromol/L=>final conc. in the 5 microL assay volume is 0.75 micromol/L) in assay buffer and the resulting mixture was incubated for a reaction time of 25 min at 22° C. The concentration of CDK2/CycE was adjusted depending of the activity of the enzyme lot and was chosen appropriate to have the assay in the linear range, typical concentrations were in the range of 10 ng/ml. The reaction was stopped by the addition of 3 microL of a solution of TR-FRET detection reagents (0.333 micromol/L streptavidine-XL665 [Cisbio Bioassays, Codolet, France] and 1.67 nanomol/L anti-RB(pSer807/pSer8l 1)-antibody from BD Pharmingen [#558389] and 2 nanomol/L LANCE EU-W1024 labeled anti-mouse IgG antibody [Perkin-Elmer, product no. AD0077, as an alternative a Terbium-cryptate-labeled anti-mouse IgG antibody from Cisbio Bioassays can be used]) in an aqueous EDTA-solution (167 millimol/L EDTA, 0.2% (w/v) bovine serum albumin in 100 millimol/L HEPES pH 7.5).
The resulting mixture was incubated 1 h at 22° C. to allow the formation of complex between the phosphorylated biotinylated peptide and the detection reagents. Subsequently the amount of phosphorylated substrate was evaluated by measurement of the resonance energy transfer from the Eu-chelate to the streptavidine-XL. Therefore, the fluorescence emissions at 620 nm and 665 nm after excitation at 350 nm was measured in a TR-FRET reader, e.g. a Pherastar (BMG Labtechnologies, Offenburg, Germany) or a Viewlux (Perkin-Elmer). The ratio of the emissions at 665 nm and at […] was taken as the measure for the amount of phosphorylated substrate. The data were normalised (enzyme reaction without inhibitor=0% inhibition, all other assay components but no enzyme=100% inhibition).

[1] = biological target: T2, CDK12 (nuclear staining in CAL-120 cells) (Homo sapiens, UniProt Q9NYV4); assay: CDK12 nuclear protein level: immunofluorescence/high content analysis (CAL-120); type: cell-based; conditions: for DC50: CAL-120 cells, 24 h, immunofluorescence, 50% reduction of nuclear CDK12 staining intensity, median, read-out: CDK12 degradation IF, DC50- [mol/l] (median); for (IC50 CDK12 high ATP) to (Degradation DC50 CDK12) ratio: ratio of IC50 CDK12 high ATP kinase assay to DC50 CDK12 degradation (IF, CAL-120)
T2 construct: endogenous in cells; host or cells: CAL-120 human breast cancer cells (DSMZ ACC 459)
T2 sequence (Q9NYV4 whole entry): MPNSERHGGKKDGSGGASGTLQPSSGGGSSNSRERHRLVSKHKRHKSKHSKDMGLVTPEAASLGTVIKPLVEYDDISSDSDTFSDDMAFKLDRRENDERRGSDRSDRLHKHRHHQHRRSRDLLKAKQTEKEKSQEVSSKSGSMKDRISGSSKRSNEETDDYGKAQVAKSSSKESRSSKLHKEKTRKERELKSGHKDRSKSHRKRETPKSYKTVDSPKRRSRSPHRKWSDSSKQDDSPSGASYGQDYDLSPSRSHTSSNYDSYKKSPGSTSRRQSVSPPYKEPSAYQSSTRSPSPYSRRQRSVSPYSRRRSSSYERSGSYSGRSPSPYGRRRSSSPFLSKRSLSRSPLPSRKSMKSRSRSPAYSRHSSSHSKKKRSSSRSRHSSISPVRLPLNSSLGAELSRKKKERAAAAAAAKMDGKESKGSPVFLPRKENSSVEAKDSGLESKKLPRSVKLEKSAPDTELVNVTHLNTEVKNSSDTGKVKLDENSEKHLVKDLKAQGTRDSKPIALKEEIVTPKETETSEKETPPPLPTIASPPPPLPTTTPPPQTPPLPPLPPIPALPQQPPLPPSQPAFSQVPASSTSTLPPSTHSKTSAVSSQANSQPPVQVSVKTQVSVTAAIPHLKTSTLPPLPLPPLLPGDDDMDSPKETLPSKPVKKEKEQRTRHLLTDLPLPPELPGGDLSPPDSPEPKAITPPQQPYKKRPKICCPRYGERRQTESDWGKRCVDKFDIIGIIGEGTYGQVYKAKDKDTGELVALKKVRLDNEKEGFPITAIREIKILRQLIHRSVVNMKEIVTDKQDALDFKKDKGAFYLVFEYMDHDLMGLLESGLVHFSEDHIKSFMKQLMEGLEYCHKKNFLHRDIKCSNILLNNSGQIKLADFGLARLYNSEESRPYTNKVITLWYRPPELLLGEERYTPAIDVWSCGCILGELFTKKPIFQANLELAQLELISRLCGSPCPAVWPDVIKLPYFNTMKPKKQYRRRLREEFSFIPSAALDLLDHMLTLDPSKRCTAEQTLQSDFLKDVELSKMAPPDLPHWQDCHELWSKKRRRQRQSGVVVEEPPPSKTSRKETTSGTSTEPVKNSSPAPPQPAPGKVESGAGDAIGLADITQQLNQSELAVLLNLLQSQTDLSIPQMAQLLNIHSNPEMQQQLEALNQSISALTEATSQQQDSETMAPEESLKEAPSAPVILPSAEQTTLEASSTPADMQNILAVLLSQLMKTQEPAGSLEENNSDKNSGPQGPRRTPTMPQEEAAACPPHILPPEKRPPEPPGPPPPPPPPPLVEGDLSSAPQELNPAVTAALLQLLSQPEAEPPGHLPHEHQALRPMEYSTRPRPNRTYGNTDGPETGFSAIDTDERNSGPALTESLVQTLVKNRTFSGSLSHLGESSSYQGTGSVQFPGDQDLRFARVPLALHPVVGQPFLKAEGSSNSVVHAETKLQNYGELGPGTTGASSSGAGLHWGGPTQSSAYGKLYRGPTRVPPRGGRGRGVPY
T2 sequence (O75909 whole entry partner): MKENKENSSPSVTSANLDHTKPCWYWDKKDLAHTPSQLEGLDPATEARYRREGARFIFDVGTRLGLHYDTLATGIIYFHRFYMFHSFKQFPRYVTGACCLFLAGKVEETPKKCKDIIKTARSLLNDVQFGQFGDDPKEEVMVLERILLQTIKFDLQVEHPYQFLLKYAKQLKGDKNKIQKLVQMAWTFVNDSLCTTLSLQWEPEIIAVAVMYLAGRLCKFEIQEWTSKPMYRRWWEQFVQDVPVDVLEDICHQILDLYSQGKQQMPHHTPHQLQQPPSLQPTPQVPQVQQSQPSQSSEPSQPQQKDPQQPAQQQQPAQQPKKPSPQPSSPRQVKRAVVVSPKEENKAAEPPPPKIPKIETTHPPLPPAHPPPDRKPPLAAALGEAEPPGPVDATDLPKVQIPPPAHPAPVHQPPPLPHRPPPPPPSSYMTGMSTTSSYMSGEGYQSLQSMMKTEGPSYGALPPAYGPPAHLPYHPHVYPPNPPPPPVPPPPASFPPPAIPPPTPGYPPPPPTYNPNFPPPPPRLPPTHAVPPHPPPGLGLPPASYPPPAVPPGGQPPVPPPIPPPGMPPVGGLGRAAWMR
Experimental: In the context of the present invention, the term “DC50 CDK12” refers to the DC50 values obtained according to the assay described in this section (7) herein below, i.e. the DC50 values for the degradation of CDK12.
Plates are then incubated for 24 h at 37° C. in an humidified incubator and fixed with 4% PFA for 10 min. […] Nuclear and cytoplasmic intensity as well as the nuclear/cytoplasmic intensity ratio is determined by automated image analysis using custom generated scripts (MetaXpress). Data is then transferred to Genedata Screener software, normalized to DMSO and control and DC50 values (degrading concentration to achieve 50% reduction of nuclear CDK12 staining intensity relative to controls) are reported.

Compound | IC50 (CDK2/CycE) [nM] | DC50 [1] [nM] | (IC50 CDK12 high ATP) to (Degradation DC50 CDK12) ratio [1]
[O-][S+]1CCN(c2nc(NCc3nc4ccccc4[nH]3)n3ncc(Br)c3n2)CC1 [Example 144, 4-(4-{[(1H-benzimidazol-2-yl)methyl]amino}-8-bromopyrazolo[1,5-a][1,3,5]triazin-2-yl)-1lambda^4-thiomorpholin-1-one] | 7810 | 6.32 | 590
Cc1ccc2[nH]c(CNc3nc(N4CCN(C)CC4)nc4c(Br)cnn34)nc2c1 [Example 158, 8-bromo-N-[(5-methyl-1H-benzimidazol-2-yl)methyl]-2-(4-methylpiperazin-1-yl)pyrazolo[1,5-a][1,3,5]triazin-4-amine] | 5300 | 0.536 | 8313
Clc1cccc(-c2cnn3c(NCc4nc5ccccc5[nH]4)nc(N4CCOCC4)nc23)c1 [Example 107, N-[(1H-benzimidazol-2-yl)methyl]-8-(3-chlorophenyl)-2-(morpholin-4-yl)pyrazolo[1,5-a][1,3,5]triazin-4-amine] | > 20000 | 57.7 | >347
C[C@@H]1CN(c2nc(NCc3nc4ccccc4[nH]3)n3ncc(Br)c3n2)CCN1C [Example 135, N-[(1H-benzimidazol-2-yl)methyl]-8-bromo-2-[(3R)-3,4-dimethylpiperazin-1-yl]pyrazolo[1,5-a][1,3,5]triazin-4-amine] | 7750 | 3.69 | 3939
COc1ccc2[nH]c(CNc3nc(N4CCOCC4)nc4c(Br)cnn34)nc2c1 [Example 160, 8-bromo-N-[(5-methoxy-1H-benzimidazol-2-yl)methyl]-2-(morpholin-4-yl)pyrazolo[1,5-a][1,3,5]triazin-4-amine] | 5170 | 1.4 | 889
CN1CCN(c2nc(NCc3nc4ccccc4[nH]3)n3ncc(Br)c3n2)C(CO)C1 (stereo not drawn) [Example 155, [1-[4-(1H-benzimidazol-2-ylmethylamino)-8-bromo-pyrazolo[1,5-a][1,3,5]triazin-2-yl]-4-methyl-piperazin-2-yl]methanol] | 9280 | 47.2 | 79
N=S1(=O)CCN(c2nc(NCc3nc4ccccc4[nH]3)n3ncc(Br)c3n2)CC1 [Example 145, 4-(4-{[(1H-benzimidazol-2-yl)methyl]amino}-8-bromopyrazolo[1,5-a][1,3,5]triazin-2-yl)-1-imino-1lambda^6-thiomorpholin-1-one] | 6140 | 16.8 | 751
CC(C)c1cnn2c(NCc3nc4ccccc4[nH]3)nc(N3CCCOCC3)nc12 [Example 8, N-[(1H-benzimidazol-2-yl)methyl]-2-(1,4-oxazepan-4-yl)-8-(propan-2-yl)pyrazolo[1,5-a][1,3,5]triazin-4-amine] | 11100 | 20.7 | >956
Cc1ccc(-c2nnc(CNc3nc(N4CCOCC4)nc4c(Br)cnn34)[nH]2)cc1F [Example 98, 8-bromo-N-{[5-(3-fluoro-4-methylphenyl)-4H-1,2,4-triazol-3-yl]methyl}-2-(morpholin-4-yl)pyrazolo[1,5-a][1,3,5]triazin-4-amine] | 2030 | 38.5 | 28
CN1CCN(c2nc(NCc3nc4cc(F)ccc4[nH]3)n3ncc(Br)c3n2)CC1 [Example 134, 8-bromo-N-[(5-fluoro-1H-benzimidazol-2-yl)methyl]-2-(4-methylpiperazin-1-yl)pyrazolo[1,5-a][1,3,5]triazin-4-amine] | 12000 | 0.991 | >17850
CC(=O)NCCCc1cccc2[nH]c(CNc3nc(N4CCOCC4)nc4c(Br)cnn34)nc12.O=CO [Example 115, formic acid-N-{3-[2-({[8-bromo-2-(morpholin-4-yl)pyrazolo[1,5-a][1,3,5]triazin-4-yl]amino}methyl)-1H-benzimidazol-4-yl]propyl}acetamide (1/1)] | 10700 | 45.3 | 256
c1ccc2[nH]c(CNc3nc(N4CCOCC4)nc4c(-c5ccncc5)cnn34)nc2c1 [Example 111, N-[(1H-benzimidazol-2-yl)methyl]-2-(morpholin-4-yl)-8-(pyridin-4-yl)pyrazolo[1,5-a][1,3,5]triazin-4-amine hydrogen chloride (1/1)] | > 20000 | 1.22 | >1337
Brc1cnn2c(NCc3nc4ccccc4[nH]3)nc(N3CCC3)nc12 [Example 143, 2-(azetidin-1-yl)-N-[(1H-benzimidazol-2-yl)methyl]-8-bromopyrazolo[1,5-a][1,3,5]triazin-4-amine] | 17800 | 30.9 | >646
Cc1cccc2[nH]c(CNc3nc(N4CCOCC4)nc4c(Br)cnn34)nc12 [Example 150, 8-bromo-N-[(4-methyl-1H-benzimidazol-2-yl)methyl]-2-(morpholin-4-yl)pyrazolo[1,5-a][1,3,5]triazin-4-amine] | 4360 | 1.31 | 2033
Brc1cnn2c(NCc3nnc(-c4ccccc4)[nH]3)nc(N3CCNCC3)nc12.O=CO [Example 119, 8-bromo-N-[(5-phenyl-4H-1,2,4-triazol-3-yl)methyl]-2-piperazin-1-yl-pyrazolo[1,5-a][1,3,5]triazin-4-amine formate] | 7770 | 1.54 | 4303
CN1CCN(c2nc(NCc3nc4c(F)c(F)ccc4[nH]3)n3ncc(Br)c3n2)CC1 [Example 133, 8-bromo-N-[(4,5-difluoro-1H-benzimidazol-2-yl)methyl]-2-(4-methylpiperazin-1-yl)pyrazolo[1,5-a][1,3,5]triazin-4-amine] | 15100 | 0.846 | 8279
FC(F)(F)CN1CCN(c2nc(NCc3nc4ccccc4[nH]3)n3ncc(Br)c3n2)CC1 [Example 139, N-[(1H-benzimidazol-2-yl)methyl]-8-bromo-2-[4-(2,2,2-trifluoroethyl)piperazin-1-yl]pyrazolo[1,5-a][1,3,5]triazin-4-amine] | 14700 | 110 | 140
CN1CCN(c2nc(NCc3nc4cc(Cl)ccc4[nH]3)n3ncc(Br)c3n2)CC1 [Example 163, 8-bromo-N-[(5-chloro-1H-benzimidazol-2-yl)methyl]-2-(4-methylpiperazin-1-yl)pyrazolo[1,5-a][1,3,5]triazin-4-amine] | 10800 | 0.334 | >17106
Fc1ccc2[nH]c(CNc3nc(N4CCOCC4)nc4c(Br)cnn34)nc2c1 [Example 101, 8-bromo-N-[(5-fluoro-1H-benzimidazol-2-yl)methyl]-2-(morpholin-4-yl)pyrazolo[1,5-a][1,3,5]triazin-4-amine] | 3880 | 0.584 | 3856

From US20230117034A1, “PYRAZOLOTRIAZINES” (Bayer Aktiengesellschaft, priority 2019, published 2023)
